Data from patent US20080274947A1, “Hydroxy-Substituted Diphenylazetidinones for the Treatment of Hyperlipidemia” (SANOFI-AVENTIS DEUTSCHLAND GMBH, priority 2005, published 2008).

test system: not listed separately; assay: Liver exposure: substance level in liver homogenate by LC-MS/MS; assay type: in vivo; conditions: rat, oral, male Wistar rats, 10 mg/kg of body weight, liver dissected after 2 h, read-out: Cmax values in the liver (L)
Method: The liver exposure of the compounds of the invention compared with the corresponding compounds without a hydroxyl function in the 2″ position was investigated in vivo in male Wistar rats. A rat anesthetized with ketamine/midazolam (ketamine 80 mg/kg i.p.+midazolam 5 mg/kg i.p.) undergoes laparotomy in the Linea alba, and then the product is administered intraduodenally. During this it is attempted to prevent direct reflux of the product into the stomach. The animals remain under anesthesia throughout the experiment. At the end of the experiment, after 2 h, the liver is dissected out for determination of the substance. The substance levels in the liver homogenates are determined by LC-MS/MS. For this purpose, initially the proteins are precipitated by adding acetonitrile in the presence of an internal standard. Part of the supernatant is mixed with a suitable buffer, and an aliquot of the mixture is injected. The measurement is evaluated via the peak areas of analyte and internal standard.
Cmax values in the liver (L) after oral administration of 10 mg/kg of body weight

SMILES | Cmax at 2 h
O=C1[C@H](CC[C@H](O)c2ccc(F)cc2)[C@@H](c2ccc(OCc3ccc(C[N+]45CCN(CC4)CC5)cc3)cc2O)N1c1ccc(F)cc1.[Br-] | 80 ng/mL
O=C1[C@H](CC[C@H](O)c2ccc(F)cc2)[C@@H](c2ccc(OCc3ccc(C[N+]45CCN(CC4)CC5)cc3)cc2)N1c1ccc(F)cc1.[Br-] [reference compound] | 200 ng/mL
N.O=C1[C@H](CC[C@H](O)c2ccc(F)cc2)[C@@H](c2ccc(OCCCOS(=O)(=O)O)cc2O)N1c1ccc(F)cc1 | 300 ng/mL
N.O=C1[C@H](CC[C@H](O)c2ccc(F)cc2)[C@@H](c2ccc(OCCCOS(=O)(=O)O)cc2)N1c1ccc(F)cc1 [reference compound] | 24300 ng/mL

test system: serum LDL cholesterol; assay: Hamster model: serum LDL cholesterol reduction on a cholesterol-supplemented diet; assay type: in vivo, Syrian hamsters; conditions: Mesocricetus auratus, po, once a day by gavage on 12 consecutive days, LDL cholesterol reduction vs placebo-treated controls
Method: Syrian hamsters (in groups of n=5-9) receive a standard diet (ssniff, Soest Germany) supplemented with 0.1% cholesterol.
The test substances are made up in 0.5%/(methylcellulose (Sigma)/5% Solutol (BASF, Ludwigshafen) or another suitable vehicle, and at least three dosages are administered once a day by gavage on 12 consecutive days.
On day 12, the animals are exsanguinated from the aorta under deep anesthesia. The serum is analyzed for total cholesterol, LDL-cholesterol, HDL-cholesterol and triglycerides using standard kits from Roche in accordance with the guidelines of the German Society for Clinical Chemistry.
The ED50 values for LDL cholesterol reduction compared with placebo-treated control animals were calculated using a standard logistic model for the dose-effect plot.

SMILES | ED50
O=C(Nc1ccc([C@@H]2[C@@H](CC[C@H](O)c3ccc(F)cc3)C(=O)N2c2ccc(F)cc2)c(O)c1)N1CCN(S(=O)(=O)O)CC1 [Example E, Ammonium 4-(4-{1-(4-fluorophenyl)-3-[3-(4-fluorophenyl)-3-hydroxypropyl]-4-oxoazetidin-2-yl}-3-hydroxyphenylcarbamoyl)piperazine-1-sulfamate] | 0.1 mg/kg
O=C(OCc1ccc([C@@H]2[C@@H](CC[C@H](O)c3ccc(F)cc3)C(=O)N2c2ccc(F)cc2)c(O)c1)N1CCN(S(=O)(=O)O)CC1 [Example A, Ammonium 4-(4-{1-(4-fluorophenyl)-3-[3-(4-fluorophenyl)-3-hydroxypropyl]-4-oxoazetidin-2-yl}-3-hydroxybenzyloxycarbonyl)piperazine-1-sulfamate] | 0.2 mg/kg
O=C(Oc1ccc([C@@H]2[C@@H](CC[C@H](O)c3ccc(F)cc3)C(=O)N2c2ccc(F)cc2)c(O)c1)N1CCN(S(=O)(=O)O)CC1 [I, Ammonium 4-(4-{1-(4-Fluorophenyl)-3-[3-(4-fluorophenyl)-3-hydroxypropyl]-4-oxoazetidin-2-yl}-3-hydroxyphenoxycarbonyl)piperazine-1-sulfamate] | < 0.1 mg/kg

test system: uptake of 14C-cholesterol in the liver (cholesterol absorption); assay: Cholesterol absorption test: uptake of 14C-cholesterol in the liver after an oral test meal; assay type: in vivo, NMRI mice; conditions: mouse, dose which halves (50%) the uptake of 14C-cholesterol in the liver relative to control group
Method: Influence on Cholesterol Absorption+^3H-Taurocholic Acid Excretion on the Basis of the Fecal Excretion in Mice, Rats or Hamsters
NMRI mice, Wistar rats, or golden Syrian hamsters (in groups of n=4-6) are kept with a standard diet (Altromin, Lage (Lippe)) in metabolism cages. The animals are fasted from the afternoon before administration of the radioactive tracer (^14C-cholesterol) and adapted to wire grids.
In addition, the animals are labeled with ^3H-TCA (taurocholic acid) s.c. 24 hours before the oral administration of the test meal (^14C-cholesterol in Intralipid® 20, Pharmacia-Upjohn) (e.g. 1 μCi/mouse to 5 μCi/rat).
Cholesterol absorption test: 0.25 ml/mouse Intralipid® 20 (Pharmacia-Upjohn) (spiking with 0.25 μCi ^14C-cholesterol in 0.1 mg of cholesterol) is administered orally by gavage.
Test substances are made up separately in 0.5%/(methylcellulose (Sigma)/5% Solutol (BASF, Ludwigshafen) or a suitable vehicle.
The volume for administration of the test substance is 0.5 ml/mouse. The test substance is administered orally immediately before the test meal (Intralipid with ^14C-cholesterol label) (cholesterol absorption test).
Feces are collected for 24 h: the fecal elimination of ^14C-cholesterol and ^3H taurocholic acid (TCA) is determined after 24 h.
The livers are removed, homogenized and combusted in aliquots in an oximate (model 307, Packard) to determine the amount of ^14C-cholesterol taken up/absorbed.
The amount of ^14C-cholesterol taken up in the liver is evaluated in relation to a control group (vehicle-treated) as a function of the dose of the substance administered. The ED50 values are interpolated from a dose-effect plot as the dose which halves (50%) the uptake of ^14C-cholesterol in the liver relative to a control group.

SMILES | ED50 (liver)
COc1ccc([C@@H]2[C@@H](CC[C@H](O)c3ccc(F)cc3)C(=O)N2c2ccc(CNC(=O)N3CCN(C(=O)C[N+]45CCN(CC4)CC5)CC3)cc2)c(O)c1.[Cl-] [Example P, 1-[2-(4-{4-[3-[3-(4-Fluorophenyl)-3-hydroxypropyl]-2-(2-hydroxy-4-methoxyphenyl)-4-oxoazetidin-1-yl]benzylcarbamoyl}piperazin-1-yl)-2-oxoethyl]-4-aza-1-azoniabicyclo[2.2.2]octane chloride] | 0.3 mg/mouse
O=C(C[N+]12CCN(CC1)CC2)Nc1ccc([C@@H]2[C@@H](CC[C@H](O)c3ccc(F)cc3)C(=O)N2c2ccc(F)cc2)c(O)c1.[I-] [H, 1-[(4-{1-(4-Fluorophenyl)-3-[3-(4-fluorophenyl)-3-hydroxypropyl]-4-oxoazetidin-2-yl}-3-hydroxyphenylcarbamoyl)methyl]-4-aza-1-azoniabicyclo[2.2.2]octane iodide] | 0.01 mg/mouse
C[N+]1(C)CCN(C(=O)OCc2ccc([C@@H]3[C@@H](CC[C@H](O)c4ccc(F)cc4)C(=O)N3c3ccc(F)cc3)c(O)c2)CC1.[I-] [Example C, 4-(4-{1-(4-Fluorophenyl)-3-[3-(4-fluorophenyl)-3-hydroxypropyl]-4-oxoazetidin-2-yl}-3-hydroxybenzyloxycarbonyl)-1,1-dimethylpiperazin-1-ium iodide] | 0.1 mg/mouse
O=C1C(CC[C@H](O)c2ccc(F)cc2)[C@@H](c2ccc(OCc3ccc(C[N+]45CCN(CC4)CC5)cc3)cc2O)N1c1ccc(F)cc1.[Br-] (stereo partly shown) [Example N, 1-[4-(4-{1-(4-Fluorophenyl)-3-[3-(4-fluorophenyl)-3-hydroxypropyl]-4-oxoazetidin-2-yl}-3-hydroxyphenoxymethyl)benzyl]-4-aza-1-azoniabicyclo[2.2.2]octane bromide] | 0.01 mg/mouse
O=C1C(CC[C@H](O)c2ccc(F)cc2)[C@@H](c2ccc(CN3CCN(S(=O)(=O)O)CC3)cc2O)N1c1ccc(F)cc1 (stereo partly shown) [Example B, Ammonium 4-(4-{1-(4-Fluorophenyl)-3-[3-(4-fluorophenyl)-3-hydroxypropyl]-4-oxoazetidin-2-yl}-3-hydroxybenzyl)piperazine-1-sulfamate] | <0.1 mg/mouse
COc1ccc([C@@H]2[C@@H](CC[C@H](O)c3ccc(F)cc3)C(=O)N2c2ccc(CNC(=O)CCCCCCCCCCNC(=O)[C@H](O)[C@@H](O)[C@H](O)[C@H](O)CO)cc2)c(O)c1 [Example O, 11-(2,3,4,5,6-Pentahydroxyhexanoylamino)undecanoic acid 4-[3-[3-(4-fluorophenyl)-3-hydroxypropyl]-2-(2-hydroxy-4-methoxyphenyl)-4-oxoazetidin-1-yl]benzylamide] | <0.01 mg/mouse
O=C(Nc1ccc([C@@H]2[C@@H](CC[C@H](O)c3ccc(F)cc3)C(=O)N2c2ccc(F)cc2)c(O)c1)N1CCN(S(=O)(=O)O)CC1 [Example E, Ammonium 4-(4-{1-(4-fluorophenyl)-3-[3-(4-fluorophenyl)-3-hydroxypropyl]-4-oxoazetidin-2-yl}-3-hydroxyphenylcarbamoyl)piperazine-1-sulfamate] | <0.01 mg/mouse
O=C(OCc1ccc([C@@H]2[C@@H](CC[C@H](O)c3ccc(F)cc3)C(=O)N2c2ccc(F)cc2)c(O)c1)N1CCN(S(=O)(=O)O)CC1 [Example A, Ammonium 4-(4-{1-(4-fluorophenyl)-3-[3-(4-fluorophenyl)-3-hydroxypropyl]-4-oxoazetidin-2-yl}-3-hydroxybenzyloxycarbonyl)piperazine-1-sulfamate] | 0.01 mg/mouse
O=C1[C@H](CC[C@H](O)c2ccc(F)cc2)[C@@H](c2ccc(NS(=O)(=O)O)cc2O)N1c1ccc(F)cc1 [Example F, Ammonium (4-[1-(4-fluorophenyl)-3-[3-(4-fluorophenyl)-3-hydroxypropyl]-4-oxoazetidin-2-yl]-3-hydroxyphenyl)sulfamate] | 0.3 mg/mouse
O=C(Oc1ccc([C@@H]2[C@@H](CC[C@H](O)c3ccc(F)cc3)C(=O)N2c2ccc(F)cc2)c(O)c1)N1CCN(S(=O)(=O)O)CC1 [I, Ammonium 4-(4-{1-(4-Fluorophenyl)-3-[3-(4-fluorophenyl)-3-hydroxypropyl]-4-oxoazetidin-2-yl}-3-hydroxyphenoxycarbonyl)piperazine-1-sulfamate] | 0.01 mg/mouse
C[n+]1ccn(CCCCOc2ccc([C@@H]3C(CC[C@H](O)c4ccc(F)cc4)C(=O)N3c3ccc(F)cc3)c(O)c2)c1.[I-] (stereo in doubt) [Example M, 3-[4-(4-{1-(4-Fluorophenyl)-3-[3-(4-fluorophenyl)-3-hydroxypropyl]-4-oxoazetidin-2-yl}-3-hydroxyphenoxy)butyl]-1-methyl-3H-imidazol-1-ium iodide] | <0.1 mg/mouse
O=C1[C@H](CC[C@H](O)c2ccc(F)cc2)[C@@H](c2ccc(OCCCOS(=O)(=O)O)cc2O)N1c1ccc(F)cc1 [Example K] | <0.01 mg/mouse
